The record followed here is US20160145244A1, “CERTAIN PROTEIN KINASE INHIBITORS” (FOCHON PHARMA, INC., priority 2014, published 2016).

Test [1] deals with NCI-H3122 cells. Put plainly: Cell proliferation assay, NCI-H3122 cells (SRB). In kind it is cell-based. The conditions noted are these: Homo sapiens, 72 h exposure. The procedure: (§1) NCI-H3122 or SUP-M2 Cells were plated into 96-well plates (3000-8000/well) in complete medium. After incubation overnight, cells were exposed to various concentrations of compound for further 72 h. Cell proliferation was evaluated by SRB assay (for NCI-H3122 cell) or Cell Counting Kit-8 assay (CCK-8, DOJINDO Molecular Technologies, Inc.) (for SUP-M2 cell). ICso values were calculated by concentration-response curve fitting using a SoftMax pro-based four-parameter method. Each IC50 value was expressed as mean±SD from three separate experiments.

Test [2] relates to SUP-M2 cells. Description: Cell proliferation assay, SUP-M2 cells (CCK-8). The settings on record: 72 h exposure, Cell Counting Kit-8 assay. In kind it is cell-based. The procedure: as §1
(In general: Tetrazolium assays rely on reduction of a dye to a coloured formazan, in cell work by metabolically active cells.)

Take `Cc1cc(Nc2ncnc(Nc3ccccc3S(=O)(=O)C(C)C)n2)c2c(c1C1CCNCC1)C[C@@H](C)O2` [Example 1, (R)—N^2-(2,5-dimethyl-4-(piperidin-4-yl)-2,3-dihydrobenzofuran-7-yl)-N^4-(2-(isopropylsulfonyl)phenyl)-1,3,5-triazine-2,4-diamine]: the IC50 is 52.6 nM in test [1] and 99.3 nM in test [2].
Take `Cc1cc(Nc2ncnc(Nc3ccccc3S(=O)(=O)C(C)C)n2)c2c(c1C1CCN(C)CC1)C[C@@H](C)O2` [Example 2, (R)—N^2-(2,5-dimethyl-4-(1-methylpiperidin-4-yl)-2,3-dihydrobenzofuran-7-yl)-N^4-(2-(isopropyl-sulfonyl)phenyl)-1,3,5-triazine-2,4-diamine]: the figures for the IC50 in test [1] and in test [2] were 20.8 nM and 54.4 nM, respectively.
Regarding `CC(=O)N1CCC(c2c(C)cc(Nc3ncnc(Nc4ccccc4S(=O)(=O)C(C)C)n3)c3c2C[C@@H](C)O3)CC1` [Example 3, (R)-1-(4-(7-((4-((2-(isopropylsulfonyl)phenyl)amino)-1,3,5-triazin-2-yl)amino)-2,5-dimethyl-2,3-dihydrobenzofuran-4-yl)piperidin-1-yl)ethan-1-one], the results for the IC50 in test [1] and in test [2] were 14.4 nM and 50.4 nM, respectively.
As for `Cc1cc(Nc2ncnc(Nc3ccccc3S(=O)(=O)C(C)C)n2)c2c(c1C1CCN(S(C)(=O)=O)CC1)C[C@@H](C)O2` [Example 4, (R)—N^2-(2,5-dimethyl-4-(1-(methylsulfonyl)piperidin-4-yl)-2,3-dihydrobenzofuran-7-yl)-N^4-(2-(isopropylsulfonyl)phenyl)-1,3,5-triazine-2,4-diamine], the IC50 in test [2] lay within 111 to 333 nM.
Take `Cc1cc(Nc2ncnc(Nc3ccccc3S(=O)(=O)C(C)C)n2)c2c(c1C1CCN(CCO)CC1)C[C@@H](C)O2` [Example 5, (R)-2-(4-(7-((4-((2-(isopropylsulfonyl)phenyl)amino)-1,3,5-triazin-2-yl)amino)-2,5-dimethyl-2,3-dihydrobenzofuran-4-yl)piperidin-1-yl)ethan-1-ol]: the IC50 is 57.7 nM in test [1] and 70 nM in test [2].
In test [2], `CCOC(=O)CN1CCC(c2c(C)cc(Nc3ncnc(Nc4ccccc4S(=O)(=O)C(C)C)n3)c3c2C[C@@H](C)O3)CC1` [Example 6, Ethyl (R)-2-(4-(7-((4-((2-(isopropylsulfonyl)phenyl)amino)-1,3,5-triazin-2-yl)amino)-2,5-dimethyl-2,3-dihydrobenzofuran-4-yl)piperidin-1-yl)acetate] displayed an IC50 of 111 to 333 nM.
As for `Cc1cc(Nc2ncnc(Nc3ccccc3S(=O)(=O)C(C)C)n2)c2c(c1C1CCN(CC(=O)N(C)C)CC1)C[C@@H](C)O2` [Example 7, (R)-2-(4-(7-((4-((2-(isopropylsulfonyl)phenyl)amino)-1,3,5-triazin-2-yl)amino)-2,5-dimethyl-2,3-dihydrobenzofuran-4-yl)piperidin-1-yl)-N,N-dimethylacetamide], in test [2], the IC50 lay within 111 to 333 nM.
On to `Cc1cc(Nc2ncnc(Nc3ccccc3S(=O)(=O)C(C)C)n2)c2c(c1C1CCN(CCS(C)(=O)=O)CC1)C[C@@H](C)O2` [Example 8, (R)—N^2-(2,5-dimethyl-4-(1-(2-(methylsulfonyl)ethyl)piperidin-4-yl)-2,3-dihydrobenzofuran-7-yl)-N^4-(2-(isopropylsulfonyl)phenyl)-1,3,5-triazine-2,4-diamine], for which, in test [2], the IC50 was in the range of 111 to 333 nM.
Take `Cc1cc(Nc2ncnc(Nc3ccccc3S(=O)(=O)C(C)C)n2)c2c(c1C1CCN(C(=O)CO)CC1)C[C@@H](C)O2` [Example 9, (R)-2-hydroxy-1-(4-(7-((4-((2-(isopropylsulfonyl)phenyl)amino)-1,3,5-triazin-2-yl)amino)-2,5-dimethyl-2,3-dihydrobenzofuran-4-yl)piperidin-1-yl)ethan-1-one]: the IC50 was 15.9 nM in test [1] and 33.7 nM in test [2].
Take `Cc1cc(Nc2ncnc(Nc3ccccc3S(=O)(=O)C(C)C)n2)c2c(c1C1CCN(C(=O)CN)CC1)C[C@@H](C)O2` [Example 10, (R)-2-amino-1-(4-(7-((4-((2-(isopropylsulfonyl)phenyl)amino)-1,3,5-triazin-2-yl)amino)-2,5-dimethyl-2,3-dihydrobenzofuran-4-yl)piperidin-1-yl)ethan-1-one]: the results for the IC50 in test [1] and in test [2] were 134 nM and 79.6 nM, respectively.
On to `Cc1cc(Nc2ncnc(Nc3ccccc3S(=O)(=O)C(C)C)n2)c2c(c1C1CCN(C(=O)[C@H](C)N)CC1)C[C@@H](C)O2` [Example 11, (S)-2-amino-1-(4-((R)-7-((4-((2-(isopropylsulfonyl)phenyl)amino)-1,3,5-triazin-2-yl)amino)-2,5-dimethyl-2,3-dihydrobenzofuran-4-yl)piperidin-1-yl)propan-1-one], for which the IC50 in test [1] worked out at 25.7 nM; in test [2], 67.1 nM.

For orientation: IC50 means the point on the concentration scale where inhibition reaches its midpoint. Low values mean inhibition by little substance, high ones a need for much substance.
